The values that follow come from US20250353863A1, “TRICYCLIC SPIROLACTAM COMPOUNDS WITH ANTIMYCOBACTERIAL ACTIVITY” (priority 2022, published 2025).

For the test, the system named is Mtb H37Rv-WT. As to the kind of experiment: MIC by resazurin microtiter assay (REMA) against Mtb. It counts as cell-based. The settings on record: Mycobacterium tuberculosis, REMA. (Resazurin is reduced to fluorescent resorufin, in cell work by metabolically active cells.)
Setting [1] is: 144 h, 37° C., 6 days, read-out: MIC (μM) H37Rv-WT.

Molecules are shown by their SMILES. Values after ≈ are worked out from the molar mass of the structure shown. Like-named read-outs stand apart in the source and are kept apart here.

In the case of `CC(C)[C@H]1CO[C@]23CCN(S(=O)(=O)CCc4ccc(C(F)(F)F)cc4)C[C@H]2CCC(=O)N13` [(3S,7aR,11aR)-3-isopropyl-9-[2-[4-(trifluoromethyl)phenyl]ethylsulfonyl]-2,3,6,7,7a,8,10,11-octahydrooxazolo[2,3-j][1,6]naphthyridin-5-one], the MIC (usually the lowest concentration that inhibits growth of the organism) under setting [1] is < 1 µM. Same read-out and setting: then `CC(C)[C@H]1CO[C@]23CCN(CCCc4ccc(C(F)(F)F)cc4)C[C@H]2CCC(=O)N13` [(3S,7aR,11aR)-3-isopropyl-9-[3-[4-(trifluoromethyl)phenyl]propyl]-2,3,6,7,7a,8,10,11-octahydrooxazolo[2,3-j][1,6]naphthyridin-5-one], with < 1 µM; and `CC(C)[C@H]1CO[C@]23CCN(c4ccc(C(F)(F)F)cc4)C[C@H]2CCC(=O)N13` [(3S,7aR,11aR)-3-isopropyl-9-[4-(trifluoromethyl)phenyl]-2,3,6,7,7a,8,10,11-octahydrooxazolo[2,3-j][1,6]naphthyridin-5-one], with 1 to 10 µM (≈ 0.382 to 3.82 µg/mL).

As to `CC(C)[C@H]1CO[C@]23CCN(Cc4nccn4C)C[C@H]2CCC(=O)N13` [(3S,7aR,11aR)-3-isopropyl-9-[(1-methylimidazol-2-yl)methyl]-2,3,6,7,7a,8,10,11-octahydrooxazolo[2,3-j][1,6]naphthyridin-5-one], the minimal inhibitory concentration (MIC) under setting [1] was 1 to 10 µM (≈ 0.332 to 3.32 µg/mL). In the case of `Cc1c(CN2CC[C@]34OC[C@H](C(C)C)N3C(=O)CC[C@@H]4C2)[nH]c2ccccc12` [(3S,7aR,11aR)-3-isopropyl-9-[(3-methyl-1H-indol-2-yl)methyl]-2,3,6,7,7a,8,10,11-octahydrooxazolo[2,3-j][1,6]naphthyridin-5-one], under setting [1], the minimal inhibitory concentration (MIC) is < 1 µM.

Take `CC(C)[C@H]1CO[C@]23CCN(Cc4cccc(Oc5ccccc5)c4)C[C@H]2CCC(=O)N13` [(3S,7aR,11aR)-3-isopropyl-9-[(3-phenoxyphenyl)methyl]-2,3,6,7,7a,8,10,11-octahydrooxazolo[2,3-j][1,6]naphthyridin-5-one]: under setting [1], the MIC is < 1 µM. The same measure, in the same setting: the same measure for `CC(C)[C@H]1CO[C@]23CCN(Cc4ccc(-c5ccccc5)cc4)C[C@H]2CCC(=O)N13` [(3S,7aR,11aR)-3-isopropyl-9-[(4-phenylphenyl)methyl]-2,3,6,7,7a,8,10,11-octahydrooxazolo[2,3-j][1,6]naphthyridin-5-one]: < 1 µM. Same read-out and setting: the same measure for `CC(C)[C@H]1CO[C@]23CCN(Cc4cc(C(F)(F)F)nc5ccccc45)C[C@H]2CCC(=O)N13` [(3S,7aR,11aR)-3-isopropyl-9-[[2-(trifluoromethyl)-4-quinolyl]methyl]-2,3,6,7,7a,8,10,11-octahydrooxazolo[2,3-j][1,6]naphthyridin-5-one]: < 1 µM; for `CC(C)[C@H]1CO[C@]23CCN(Cc4ccc(N5CCCCC5)cc4)C[C@H]2CCC(=O)N13` [(3S,7aR,11aR)-3-isopropyl-9-[[4-(1-piperidyl)phenyl]methyl]-2,3,6,7,7a,8,10,11-octahydrooxazolo[2,3-j][1,6]naphthyridin-5-one]: 1 to 10 µM (≈ 0.412 to 4.12 µg/mL). The same measure, in the same setting: the same measure for `CC(C)[C@H]1CO[C@]23CCN(Cc4ccc(C(F)(F)F)cc4)C[C@H]2CCC(=O)N13` [(3S,7aR,11aR)-3-isopropyl-9-[[4-(trifluoromethyl)phenyl]methyl]-2,3,6,7,7a,8,10,11-octahydrooxazolo[2,3-j][1,6]naphthyridin-5-one]: < 1 µM. For `CC(C)[C@H]1CO[C@]23CC(=O)N(Cc4ccc(C(F)(F)F)cc4)C[C@H]2CCC(=O)N13` [(3S,7aR,11aR)-3-isopropyl-9-[[4-(trifluoromethyl)phenyl]methyl]-3,6,7,7a,8,11-hexahydro-2H-oxazolo[2,3-j][1,6]naphthyridine-5,10-dione], the MIC under setting [1] was > 10 µM.

Regarding `CC(C)[C@H]1CO[C@]23CCN(Cc4ccc(N5CCC(Oc6ccc(OC(F)(F)F)cc6)CC5)cc4)C[C@H]2CCC(=O)N13` [(3S,7aR,11aR)-3-isopropyl-9-[[4-[4-[4-(trifluoromethoxy)phenoxy]-1-piperidyl]phenyl]methyl]-2,3,6,7,7a,8,10,11-octahydrooxazolo[2,3-j][1,6]naphthyridin-5-one], the MIC under setting [1] is < 1 µM. For `CC(C)[C@H]1CO[C@]23CCN(Cc4ccc(N5CCC(c6ccc(OC(F)(F)F)cc6)CC5)cc4)C[C@H]2CCC(=O)N13` [(3S,7aR,11aR)-3-isopropyl-9-[[4-[4-[4-(trifluoromethoxy)phenyl]-1-piperidyl]phenyl]methyl]-2,3,6,7,7a,8,10,11-octahydrooxazolo[2,3-j][1,6]naphthyridin-5-one], the MIC under setting [1] is < 1 µM.

For the compound `CC(C)[C@H]1CO[C@]23CCN(Cc4ccc(C(F)(F)F)cc4)C[C@H]2CC(F)(F)C(=O)N13` [(3S,7aR,11aR)-6,6-difluoro-3-isopropyl-9-[[4-(trifluoromethyl)phenyl]methyl]-3,7,7a,8,10,11-hexahydro-2H-oxazolo[2,3-j][1,6]naphthyridin-5-one], under setting [1], the MIC was < 1 µM.

Regarding `CC(C)[C@H]1CO[C@]23CCN(Cc4ccc(C(F)(F)F)cc4)C[C@H]2C[C@@H](F)C(=O)N13` [(3S,7aR,11aR)-6-fluoro-3-isopropyl-9-[[4-(trifluoromethyl)phenyl]methyl]-2,3,6,7,7a,8,10,11-octahydrooxazolo[2,3-j][1,6]naphthyridin-5-one], under setting [1], the MIC was < 1 µM.

As to `CC(C)[C@H]1CO[C@]23CCN(C(=O)C(F)(F)c4ccc(C(F)(F)F)cc4)C[C@H]2CCC(=O)N13` [(3S,7aR,11aR)-9-[2,2-difluoro-2-[4-(trifluoromethyl)phenyl]acetyl]-3-isopropyl-2,3,6,7,7a,8,10,11-octahydrooxazolo[2,3-j][1,6]naphthyridin-5-one], the minimal inhibitory concentration (MIC) under setting [1] was > 10 µM. As to `CC(C)[C@H]1CO[C@]23CCN(CC(F)(F)c4ccc(C(F)(F)F)cc4)C[C@H]2CCC(=O)N13` [(3S,7aR,11aR)-9-[2,2-difluoro-2-[4-(trifluoromethyl)phenyl]ethyl]-3-isopropyl-2,3,6,7,7a,8,10,11-octahydrooxazolo[2,3-j][1,6]naphthyridin-5-one], under setting [1], the MIC was < 1 µM.

Regarding `CC(C)[C@H]1CO[C@]23CCN(Cc4cc(C5CC5)nc5ccccc45)C[C@H]2CCC(=O)N13` [(3S,7aR,11aR)-9-[(2-cyclopropyl-4-quinolyl)methyl]-3-isopropyl-2,3,6,7,7a,8,10,11-octahydrooxazolo[2,3-j][1,6]naphthyridin-5-one], the MIC under setting [1] is < 1 µM. On to `CC(C)[C@H]1CO[C@]23CCN(Cc4ccc(Cl)c(Cl)c4)C[C@H]2CCC(=O)N13` [(3S,7aR,11aR)-9-[(3,4-dichlorophenyl)methyl]-3-isopropyl-2,3,6,7,7a,8,10,11-octahydrooxazolo[2,3-j][1,6]naphthyridin-5-one], for which the MIC under setting [1] was < 1 µM.

Take `CC(C)[C@H]1CO[C@]23CCN(Cc4ccc(Cl)cc4)C[C@H]2CCC(=O)N13` [(3S,7aR,11aR)-9-[(4-chlorophenyl)methyl]-3-isopropyl-2,3,6,7,7a,8,10,11-octahydrooxazolo[2,3-j][1,6]naphthyridin-5-one]: the MIC under setting [1] is < 1 µM. Same read-out and setting: then `CC(C)[C@H]1CO[C@]23CCN(Cc4ccc(F)cc4)C[C@H]2CCC(=O)N13` [(3S,7aR,11aR)-9-[(4-fluorophenyl)methyl]-3-isopropyl-2,3,6,7,7a,8,10,11-octahydrooxazolo[2,3-j][1,6]naphthyridin-5-one], with < 1 µM; and `CC(C)[C@H]1CO[C@]23CCN(Cc4ccc(O)cc4)C[C@H]2CCC(=O)N13` [(3S,7aR,11aR)-9-[(4-hydroxyphenyl)methyl]-3-isopropyl-2,3,6,7,7a,8,10,11-octahydrooxazolo[2,3-j][1,6]naphthyridin-5-one], with > 10 µM; and `CC(C)[C@H]1CO[C@]23CCN(Cc4ccc(C(F)(F)F)cc4C(F)(F)F)C[C@H]2CCC(=O)N13` [(3S,7aR,11aR)-9-[[2,4-bis(trifluoromethyl)phenyl]methyl]-3-isopropyl-2,3,6,7,7a,8,10,11-octahydrooxazolo[2,3-j][1,6]naphthyridin-5-one], with < 1 µM. The same measure, in the same setting: the same measure for `CC(C)[C@H]1CO[C@]23CCN(Cc4ccc(Cl)c(C(F)(F)F)c4)C[C@H]2CCC(=O)N13` [(3S,7aR,11aR)-9-[[4-chloro-3-(trifluoromethyl)phenyl]methyl]-3-isopropyl-2,3,6,7,7a,8,10,11-octahydrooxazolo[2,3-j][1,6]naphthyridin-5-one]: < 1 µM.

With `O=C1CC[C@@H]2CN(Cc3ccccc3)CC[C@@]23OC[C@H](C2CC2)N13` [(3S,7aR,11aR)-9-benzyl-3-cyclopropyl-2,3,6,7,7a,8,10,11-octahydrooxazolo[2,3-j][1,6]naphthyridin-5-one], the minimal inhibitory concentration (MIC) under setting [1] is > 10 µM. With `CC(C)[C@H]1CO[C@]23CCN(C4CCCCC4)C[C@H]2CCC(=O)N13` [(3S,7aR,11aR)-9-cyclohexyl-3-isopropyl-2,3,6,7,7a,8,10,11-octahydrooxazolo[2,3-j][1,6]naphthyridin-5-one], under setting [1], the MIC is > 10 µM. Still for that read-out and setting: the same measure for `CC(C)[C@H]1CO[C@]23CCN(Cc4ccc(C(F)(F)F)cc4)C(=O)[C@H]2CCC(=O)N13` [(3S,7aS,11aR)-3-isopropyl-9-[[4-(trifluoromethyl)phenyl]methyl]-3,6,7,7a,10,11-hexahydro-2H-oxazolo[2,3-j][1,6]naphthyridine-5,8-dione]: > 10 µM. With `CC(C)[C@H]1CO[C@]23CCCN(Cc4ccc(C(F)(F)F)cc4)C[C@H]2CCC(=O)N13` [(4S,9R)-4-isopropyl-11-[[4-(trifluoromethyl)phenyl]methyl]-2-oxa-5,11-diazatricyclo[7,5,0.01,5]tetradecan-6-one], the MIC under setting [1] is < 1 µM. With `CC(C)[C@H]1CO[C@]23CCN(Cc4ccc(C(F)(F)F)cc4C(F)(F)F)C[C@H]2CCC(=O)N13` [Example 10, (3S,7aR,11aR)-9-[[2,4-bis(trifluoromethyl)phenyl]methyl]-3-isopropyl-2,3,6,7,7a,8,10,11-octahydrooxazolo[2,3-j][1,6]naphthyridin-5-one], the MIC (read-out: MIC M. tuberculosis) is < 1 µM. The same measure, in the same setting: then `CC(C)[C@H]1CO[C@]23CCN(Cc4cc(C5CC5)nc5ccccc45)C[C@H]2CCC(=O)N13` [Example 24, (3S,7aR,11aR)-9-[(2-cyclopropyl-4-quinolyl)methyl]-3-isopropyl-2,3,6,7,7a,8,10,11-octahydrooxazolo[2,3-j][1,6]naphthyridin-5-one], with < 1 µM.
